Source: patent US12421205B2, “GLP-1 receptor agonist” (HYUNDAI PHARM CO., LTD., priority 2019, dated 2025)

How the values were obtained:
hERG = target: T1, hERG (Homo sapiens, UniProt Q12809); experiment: hERG inhibition test (Predictor hERG Fluorescence Polarization assay kit); assay type: binding; details: probe kit Tracer (fluorescent hERG ligand), hERG % inhibition at 10 uM, relative to E-4031 and solvent control
T1 construct: purchased Invitrogen PV5365
Experimental: To measure the hERG (Human ether-a-go-go-related gene) channel inhibition rate of the compound according to the present invention, the following test was performed using a Predictor hERG Fluorescence Polarization assay kit (Invitrogen, PV5365).
Specifically, a test substance was dissolved in DMSO to prepare a 50 mM solution. A 4 mM solution was prepared by diluting the 50 mM solution with DMSO in a U bottom 96-well plate (SPL, 34096), and was then diluted 100-fold with a test buffer to prepare a 40 uM (4×) solution. The positive control E-4031 (3 mM) provided in the kit was diluted 25-fold with a test buffer to prepare a 120 uM solution) 5 uL of the diluted test substance solution was dispensed into a 384-well assay plate (corning, 3677). hERG Membrane (2×) and Tracer (4×) provided in the kit were respectively added at 10 uL and 5 uL, and then subjected to the reaction at room temperature for 2.5 hours. After completion of the reaction, fluorescence polarization (mP) was measured with a Multimode Plate Reader (Perkin-Elmer, Envision) (excitation wavelength of 531 nm, and emission wavelength 579 nm). The value of the percent inhibitory activity (% inhibition) at 10 uM of each test substance was calculated by the following equation, and the results are shown in Table 2: (% inhibition)=100−{(mP of the compound according to the present invention−E-4031 mP)/(mP of the solvent control−E-4031 mP)}×100

human GLP-1 receptor = target: T2, human GLP-1 receptor (Homo sapiens, UniProt P43220); experiment: cAMP activity test (cAMP dynamic HTRF kit) in CHO-K1/GLP-1 receptor-expressing cells; assay type: cell-based; details: cAMP activity, CHO-K1/GLP-1 receptor-expressing cells; read-out: EC50
T2 construct: host or cells: CHO-K1
Experimental: The next day, the medium was removed, and a 50 uL of HBSS medium containing 0.1% BSA, 0.5 mM IBMX, and 5 mM HEPES was added to each well. […] The cAMP activity was measured according to the manufacturer's instructions using the cAMP dynamic HTRF kit (Cisbio, 62AM4PEC). After incubation, the medium was discarded, and the cells were lysed. cAMP-d2 and anti-cAMP cryptate conjugate were added thereto and reacted for 3 hours. […] Intracellular cAMP competes with cAMP-d2 for anti-cAMP cryptate, and the measured signal of fluorescence resonance energy transfer (FRET) is inversely proportional to intracellular cAMP.

T1 sequence (Q12809 whole entry): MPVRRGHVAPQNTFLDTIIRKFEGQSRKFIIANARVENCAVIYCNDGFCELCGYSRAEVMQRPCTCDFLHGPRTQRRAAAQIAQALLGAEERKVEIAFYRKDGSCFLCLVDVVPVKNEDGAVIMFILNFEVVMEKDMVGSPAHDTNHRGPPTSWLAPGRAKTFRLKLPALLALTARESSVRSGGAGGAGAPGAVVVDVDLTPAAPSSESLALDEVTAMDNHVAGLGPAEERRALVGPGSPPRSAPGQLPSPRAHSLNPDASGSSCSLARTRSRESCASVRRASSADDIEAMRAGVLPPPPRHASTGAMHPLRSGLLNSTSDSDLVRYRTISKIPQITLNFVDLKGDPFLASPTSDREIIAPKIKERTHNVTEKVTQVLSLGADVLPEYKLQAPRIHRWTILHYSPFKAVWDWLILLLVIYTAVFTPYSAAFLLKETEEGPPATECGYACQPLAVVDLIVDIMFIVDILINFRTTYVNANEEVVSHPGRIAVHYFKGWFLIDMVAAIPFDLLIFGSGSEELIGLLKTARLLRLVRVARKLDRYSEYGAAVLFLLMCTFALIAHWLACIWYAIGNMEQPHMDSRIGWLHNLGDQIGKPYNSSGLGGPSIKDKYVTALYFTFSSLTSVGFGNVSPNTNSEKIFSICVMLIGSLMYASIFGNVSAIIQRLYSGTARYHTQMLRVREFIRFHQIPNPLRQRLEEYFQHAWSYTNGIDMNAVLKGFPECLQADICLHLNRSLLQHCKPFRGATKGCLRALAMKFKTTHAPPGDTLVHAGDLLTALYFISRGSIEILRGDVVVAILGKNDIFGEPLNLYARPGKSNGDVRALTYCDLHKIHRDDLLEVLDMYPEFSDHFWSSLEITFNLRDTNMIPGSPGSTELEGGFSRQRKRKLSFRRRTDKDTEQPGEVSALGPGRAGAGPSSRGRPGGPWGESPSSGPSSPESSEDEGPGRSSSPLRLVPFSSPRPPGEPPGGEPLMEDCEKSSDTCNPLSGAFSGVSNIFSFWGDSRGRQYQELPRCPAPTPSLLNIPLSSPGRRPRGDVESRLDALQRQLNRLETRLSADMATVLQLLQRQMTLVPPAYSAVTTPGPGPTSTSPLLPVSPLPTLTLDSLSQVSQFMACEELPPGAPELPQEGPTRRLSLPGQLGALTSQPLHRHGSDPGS
T2 sequence (P43220 24-463): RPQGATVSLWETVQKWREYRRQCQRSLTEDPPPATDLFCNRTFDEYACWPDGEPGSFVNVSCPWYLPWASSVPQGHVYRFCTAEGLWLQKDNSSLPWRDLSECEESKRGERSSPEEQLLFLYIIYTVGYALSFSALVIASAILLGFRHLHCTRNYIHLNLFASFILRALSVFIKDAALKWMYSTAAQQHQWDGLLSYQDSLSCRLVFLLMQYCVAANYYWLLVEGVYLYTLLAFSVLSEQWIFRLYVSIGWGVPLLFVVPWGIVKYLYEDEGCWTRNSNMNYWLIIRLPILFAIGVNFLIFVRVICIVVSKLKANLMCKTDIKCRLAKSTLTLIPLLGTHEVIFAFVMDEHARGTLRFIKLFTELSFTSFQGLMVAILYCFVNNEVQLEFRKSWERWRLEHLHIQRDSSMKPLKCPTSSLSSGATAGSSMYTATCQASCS

SMILES | inhibition at 2.5 h, 10 µM (hERG) | EC50 (human GLP-1 receptor)
N#Cc1ccc(COc2cccc(-c3ccc(Cc4nc5ccc(C(=O)O)cc5n4C[C@H]4CCCO4)c(F)c3)c2)c(F)c1 [Example 46, (R)-2-((3′-(4-cyano-2-fluorobenzyloxy)-3-fluorobiphenyl-4-yl)methyl)-1-((tetrahydrofuran-2-yl)methyl)-1H-benzo[d]imidazole-6-carboxylic acid] | 1.04% | 260 nM
CCn1cncc1Cn1c(Cc2ccc(-c3cccc(OCc4ccc(Cl)cc4F)n3)cc2F)nc2ccc(C(=O)O)cc21 [Example 72, 2-(4-(6-(4-chloro-2-fluorobenzyloxy)pyridin-2-yl)-2-fluorobenzyl)-1-((1-ethyl-1H-imidazole-5-yl)methyl)-1H-benzo[d]imidazole-6-carboxylic acid] | -5.75% | < 3.2 nM
O=C(O)c1ccc2nc(Cc3ccc(-c4cccc(OCc5ccc(F)cc5F)n4)c(F)c3)n(C[C@@H]3CCO3)c2c1 [Example 119, (S)-2-(4-(6-((2,4-difluorobenzyl)oxy)pyridin-2-yl)-3-fluorobenzyl)-1-(oxetan-2-ylmethyl)-1H-benzo[d]imidazole-6-carboxylic acid] | 4.13% | 12 nM
N#Cc1ccc(COc2cc(-c3ccc(Cc4nc5ccc(C(=O)O)cc5n4CC4CCCO4)cc3F)ccc2F)c(F)c1 (centres unmarked) [Example 93, 2-((3′-(4-cyano-2-fluorobenzyloxy)-2,4′-difluorobiphenyl-4-yl)methyl)-1-((tetrahydrofuran-2-yl)methyl)-1H-benzo[d]imidazole-6-carboxylic acid] | 8.9% | 1100 nM
Cc1cc(-c2cccc(OCc3ccc(C#N)cc3F)n2)ccc1Cc1nc2ccc(C(=O)O)cc2n1C[C@@H]1CCO1 [Example 133, (S)-2-(4-(6-((4-cyano-2-fluorobenzyl)oxy)pyridin-2-yl)-2-methylbenzyl)-1-(oxetan-2-ylmethyl)-1H-benzo[d]imidazole-6-carboxylic acid] | 41% | 14 nM
O=C(O)c1ccc2nc(Cc3ccc(-c4cccc(OCc5ccc(Cl)cc5F)n4)c(F)c3)n(CC3CCCO3)c2c1 (centres unmarked) [Example 11, 2-(4-(6-(4-chloro-2-fluorobenzyloxy)pyridin-2-yl)-3-fluorobenzyl)-1-((tetrahydrofuran-2-yl)methyl)-1H-benzo[d]imidazole-6-carboxylic acid] | -1.31% | 6.5 nM
O=C(O)c1ccc2nc(Cc3ccc(-c4cccc(COc5ccc(Cl)cc5F)n4)cc3F)n(C[C@H]3CCCO3)c2c1 [Example 45, (R)-2-(4-(6-((4-chloro-2-fluorophenoxy)methyl)pyridin-2-yl)-2-fluorobenzyl)-1-((tetrahydrofuran-2-yl)methyl)-1H-benzo[d]imidazole-6-carboxylic acid] | 27.7% | 3700 nM
O=C(O)c1ccc2nc(Cc3ccc(-c4ccc(F)c(OCc5ccc(Cl)cc5F)n4)cc3F)n(CC3CCCO3)c2c1 (centres unmarked) [Example 91, 2-(4-(6-(4-chloro-2-fluorobenzyloxy)-5-fluoropyridin-2-yl)-2-fluorobenzyl)-1-((tetrahydrofuran-2-yl)methyl)-1H-benzo[d]imidazole-6-carboxylic acid] | -68.2% | 7.2 nM
O=C(O)c1ccc2nc(Cc3ccc(-c4cccc(OCc5ccc(F)c(F)c5)n4)c(F)c3)n(CC3CCCO3)c2c1 (centres unmarked) [Example 98, 2-(4-(6-(3,4-difluorobenzyloxy)pyridin-2-yl)-3-fluorobenzyl)-1-((tetrahydrofuran-2-yl)methyl)-1H-benzo[d]imidazole-6-carboxylic acid] | -2.76% | 61 nM
O=C(O)c1ccc2nc(Cc3ccc(-c4cccc(OCc5ccc(Cl)cc5F)n4)c(F)c3)n(C[C@H]3CCCO3)c2c1 [Example 52, (R)-2-(4-(6-(4-chloro-2-fluorobenzyloxy)pyridin-2-yl)-3-fluorobenzyl)-1-((tetrahydrofuran-2-yl)methyl)-1H-benzo[d]imidazole-6-carboxylic acid] | 24.2% | 110 nM
